Assay results: patent publication EP0736009B1, “N-OXIDES OF 4-ARYLPIPERAZINES AND 4-ARYLPIPERIDINES AS ANTIPSYCHOTIC DRUGS” (ORTHO PHARMACEUTICAL CORPORATION, priority 1993, dated 1995)

Experiments:
[1] = target: T1, D-2 (dopamine-2) receptors (Rattus norvegicus, UniProt P61169); test: Dopamine D2 receptor binding assay (3H-spiperone, striatal P2 fraction); parameters: species or system male, Wistar rats; conditions: rat striatum P2 fraction; 3H-spiperone 0.05 nM; 45 min at 37°C
T1 construct: The D2 assay employed a P2 fraction from the striatum; from tissue; host or cells: rat striatum, P2 fraction (synaptosomal membranes)
T1 sequence (P61169 whole entry): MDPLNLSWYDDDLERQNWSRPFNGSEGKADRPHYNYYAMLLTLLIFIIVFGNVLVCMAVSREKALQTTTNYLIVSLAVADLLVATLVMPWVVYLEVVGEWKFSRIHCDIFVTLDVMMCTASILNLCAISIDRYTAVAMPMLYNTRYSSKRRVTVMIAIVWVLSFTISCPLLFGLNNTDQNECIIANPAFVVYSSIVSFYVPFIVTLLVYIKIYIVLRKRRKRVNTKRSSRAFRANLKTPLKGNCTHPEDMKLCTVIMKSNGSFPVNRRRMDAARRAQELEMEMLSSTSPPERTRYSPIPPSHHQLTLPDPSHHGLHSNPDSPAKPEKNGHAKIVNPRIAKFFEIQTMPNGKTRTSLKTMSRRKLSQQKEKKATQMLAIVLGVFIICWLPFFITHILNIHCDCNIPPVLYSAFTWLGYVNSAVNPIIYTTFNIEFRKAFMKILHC
Text: The antipsychotic activity of the compounds of the invention may be determined by the Block of Conditioned Avoidance Responding (Rat) test (CAR), references being Cook, L. and E. Weidley in Ann. N.Y. Acad. Sci., 1957, 6, 740-752, and Davidson, A.B. and E. Weidley in Life Sci., 1976, 18, 1279-1284. A reading of -20% in the CAR test was generally taken to represent a minimum value for a compound to be designated as active at a given dose. In addition, the affinity of the compounds for several receptors found in the central nervous system was evaluated; the affinity for the D-2 (dopamine-2) receptors is also listed in Table 1. As modulation of this receptor is generally recognized to be beneficial in the treatment of schizophrenia (G. P. Reynolds Trends Pharmacol. Sci. 1992, 13, 116), affinity for this receptor indicates potential utility for the compounds. […].
The dopamine D2 binding activity of compounds was determined using a P2 fraction (synaptosomal membranes) prepared from male, Wistar rats. The D2 assay employed a P2 fraction from the striatum, the ligand ^3H-spiperone at a concentration of 0.05 nM, and 1 mM haloperidol as a blank determinant. […].
The data from this assay were analyzed by calculating the percent inhibition of the binding of the tritiated ligands by given concentrations of the test compound. KI values, where given, were obtained from the logit analysis of concentration-inhibition curves.

Rat = test: Block of Conditioned Avoidance Responding (Rat) test (CAR); type: in vivo, Male, Fischer 344 rats; conditions: for Loss of escape: % failures to escape (group mean), measure of general sedative potential, at CAR 15 mg/kg ip; for % CAR at 15 mg/kg: mean % change in CAR vs vehicle pretreatment day, 15 mg/kg ip, negative number = blockade of CAR
Text: The antipsychotic activity of the compounds of the invention may be determined by the Block of Conditioned Avoidance Responding (Rat) test (CAR), references being Cook, L. and E. Weidley in Ann. N.Y. Acad. Sci., 1957, 6, 740-752, and Davidson, A.B. and E. Weidley in Life Sci., 1976, 18, 1279-1284. A reading of -20% in the CAR test was generally taken to represent a minimum value for a compound to be designated as active at a given dose. In addition, the affinity of the compounds for several receptors found in the central nervous system was evaluated; the affinity for the D-2 (dopamine-2) receptors is also listed in Table 1. As modulation of this receptor is generally recognized to be beneficial in the treatment of schizophrenia (G. P. Reynolds Trends Pharmacol. Sci. 1992, 13, 116), affinity for this receptor indicates potential utility for the compounds. […] Block of Conditioned Avoidance Responding (Rat) Apparatus: Rat operant chambers, housed within sound attenuated booths, both from […] Instruments Ltd., were used in this test. The test chamber (8" H x […] D) is constructed of aluminum and plexiglass with floor grid bars of stainless-steel (1/8" O.D.) spaced 9/16" apart. A stainless-steel operation level 1-1/2" wide projects 3/4" into the chamber and is positioned 2-2/8" above the grid floor. The shock stimulus is delivered via the grid floor by a Coulbourn Instruments solid state module. The parameters of the test and the collection of data are controlled automatically. Training: Male, Fischer 344 rats obtained from Charles River (Kingston, NY) weighing more than 200 g, are individually housed with chow and water provided ad libitum. The rats are trained for two weeks to approach criterion levels in the avoidance test (90% avoidance rate). One-hour training sessions are run at about the same time each day for four or five days a week. The training session consists of 120 trials, with the conditioned stimuli presented every 30 sec. A trial begins with presentation of the conditioned stimuli (a light and a tone). If the rat responds by depressing the operant lever during the 15-second presentation of the conditioned stimuli, the trial is terminated and the animal is credited with a CAR. Failure to respond during the conditioned stimuli causes the presentation of the unconditioned stimulus (UCS), a 0.7 mA shock which is accompanied by a light and tone for five seconds. If the rat depressed the lever within the ten-second period, the shock and trial are terminated and an escape response recorded. If the rat fails to depress the lever during the UCS (shock), the trial is terminated after ten seconds of shock and the absence of a response is scored as a failure to escape. […] presses have no effect. If a rat performs at the 90% CAR level for two weeks, it is then run twice a week on the test schedule (see below) until baseline performance stabilized. Before any drug is administered, two weeks of CAR at a rate of 90% or better is required. The percent change in CAR on the drug treatment day compared to vehicle pretreatment day is the key measure. The percent change (% change) in CAR is determined using the following formula: % change CAR = ((% CAR for Day 2/% CAR for Day 1) x 100)-100 [formula] A negative number indicates a blockade of CAR, whereas a positive number would indicate increased CAR. The test results are reported as the mean % change for the group of rats. Failure to escape, a measure of the general sedative potential of the compound, was calculated for each animal as follows: % Failures = # of Failures to Escape/# of trials [formula] The % failures, viz., loss of escape, is also reported as a group mean. Failures to escape are monitored closely and a session is terminated if ten failures occurred. ED50 values and 95% confidence limits are calculated using linear regression analysis. […]

Ki [1] [nM]	SMILES	Loss of escape (Rat) [%]	% CAR at 15 mg/kg (Rat) [%]
371	CC(C)Oc1ccccc1C1CC[N+]([O-])(Cc2cccc(C(=O)N3[C@H](C)CCC[C@@H]3C)c2)CC1 (relative stereo) [Compound 3, 1-[3-[[4-[2-(1-Methylethoxy)phenyl]-1-piperidinyl-1-oxide]methyl]benzoyl]-cis-2.6-dimethylpiperidine]	0.4	-37.7
140	CC(C)Oc1ccccc1[N+]1([O-])CCN(Cc2cccc(C(=O)N3CCCCC3)c2)CC1 [Compound 1, 1-[3-[[4-[2-(1-Methylethoxy)ehenyl]-4-oxide-1-piperazinyl]methyl]benzoyl]piperidine]	44.8	-91.7
355	CC(C)Oc1ccccc1N1CC[N+]([O-])(Cc2cccc(C(=O)N3CCCCC3)c2)CC1 [Compound 2, 1-[3-[[4-[2-(1-Methylethoxy)phenyl]-1-piperazinyl-1-oxide]methyl]benzoyl]piperidine]	31.5	-87.6
